Source: patent US20100273700A1, “USE OF A PEPTIDE AS A THERAPEUTIC AGENT” (priority 2007, published 2010)

System: drug-resistant Mycobacterium tuberculosis
Settings: 5 micrograms per ml

CC(C)C[C@H](NC(=O)[C@H](Cc1ccccc1)NC(=O)CNC(=O)CNC(=O)[C@@H](N)Cc1ccc(O)cc1)C(=O)N[C@@H](CCCNC(=N)N)C(=O)N[C@@H](CCCNC(=N)N)C(=O)N[C@@H](CCC(N)=O)C(=O)N[C@@H](Cc1ccccc1)C(=O)N[C@@H](CCCCN)C(=O)N[C@H](C(=O)N[C@H](C(=O)N[C@H](C(=O)O)[C@@H](C)O)C(C)C)C(C)C [Dynorphin B]
% inhibition: 0.0%
